Laboratory results from ChEMBL document CHEMBL3102853, “Carbonic anhydrase inhibitors. Synthesis, and molecular structure of novel series N-substituted N'-(2-arylmethylthio-4-chloro-5-methylbenzenesulfonyl)guanidines and their inhibition of human cytosolic isozymes I and II and the transmembrane tumor-associated isozymes IX and XII” (Eur J Med Chem, 2014).

Target: Carbonic anhydrase 9 (Homo sapiens, UniProt Q16790)
Description: Inhibition of CA9 (unknown origin)

- Ki: 3.2 nM
Structure (SMILES): NS(=O)(=O)c1ccc2c(c1)CCC2NC(=O)c1c(F)c(F)c(F)c(F)c1F (stereo unspecified)
